# In patent EP0103381B1, “Substituted anthra(1,9-cd)pyrazol-6(2H)-ones” (WARNER-LAMBERT COMPANY, priority 1982, dated 1984):
# Assays:
# Aerobacter aerogenes = assay: agar plate paper-disc inhibition zone screening; type: cell-based; conditions: Klebsiella aerogenes, read-out: Inhibition Zone Diameter mm (Dose mg/ml) A. Aerogenes; for zone of inhibition at 500 µg/mL: Dose 0.5 mg/ml; for zone of inhibition at 1000 µg/mL: Dose 1.0 mg/ml
# In short: (§1)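 Read-out: diameter (mm) of the inhibition zone around 12.7 mm paper discs after overnight (18-20 h) incubation at 37°C. Discs carried compound at 3,000-10 mcg/ml in alcohol, DMSO or DMF, final solvent <10%. Seeded agar trays used saline-suspended cells adjusted to 20-35% transmittancy.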
# Streptococcus faecalis = assay: agar plate paper-disc inhibition zone screening; type: cell-based; conditions: Enterococcus faecalis, read-out: Inhibition Zone Diameter mm (Dose mg/ml) S. Faecalis; for zone of inhibition at 3000 µg/mL: Dose 3.0 mg/ml
# In short: as §1
# Escherichia coli = assay: agar plate paper-disc inhibition zone screening; type: cell-based; conditions: read-out: Inhibition Zone Diameter mm (Dose mg/ml) E. Coli; for zone of inhibition at 100 µg/mL: Dose 0.1 mg/ml
# In short: as §1
# Bacillus subtilis = assay: agar plate paper-disc inhibition zone screening; type: cell-based; conditions: read-out: Inhibition Zone Diameter mm (Dose mg/ml) B. Subtilis; for zone of inhibition at 100 µg/mL: Dose 0.1 mg/ml; for zone of inhibition at 3000 µg/mL: Dose 3.0 mg/ml
# In short: as §1
# L1210 Leukemia = assay: L1210 leukemia in vitro; type: cell-based; conditions: Mus musculus, procedure of Europ. J. Cancer 17, 671 (1981), read-out: L1210 Leukemia In Vitro ID50 Molar
# [1] = test system: lymphocytic leukemia P388; assay: in vivo lymphocytic leukemia P388 test; parameters: species or system mice; conditions: Mus musculus, P388, ip, 720 h, two single doses four days apart, read-out: T/C × 100 (Percent); for response vs control in vivo at 6.25 mg/kg: P388, Dose 6.25 mg/kg intraperitoneally; for response vs control in vivo at 12.5 mg/kg: P388, Dose 12.5 mg/kg intraperitoneally; for response vs control in vivo at 25 mg/kg: P388, Dose 25 mg/kg intraperitoneally; for response vs control in vivo at 50 mg/kg: P388, Dose 50 mg/kg intraperitoneally; for response vs control in vivo at 3.12 mg/kg: P388, Dose 3.12 mg/kg intraperitoneally
# In short: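 CD2F mice (6–7 per group) were inoculated intraperitoneally with P388 leukemia ascitic cells. Compounds were then given i.p. as two doses four days apart at various levels. Survival over 30 days was expressed as treated/control time ratio, efficacy criterion T/C×100 >125%.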
# Penicillium avellaneum = assay: agar plate paper-disc inhibition zone screening; type: cell-based; conditions: Hamigera avellanea; Dose 3.0 mg/ml; read-out: Inhibition Zone Diameter mm (Dose mg/ml) P. Avellaneum
# In short: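 Mycelia and spores from a six-day 28°C agar culture, suspended in saline with 0.05% Tween 80 at 20% transmittancy, were seeded into molten agar trays. Compounds at 3,000, 1,000, 500, 100 and 10 mcg/ml (solvent <10%) were applied on 12.7 mm paper discs. After at least 20-24 h incubation, inhibition zone diameter was measured in mm.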
# [2] = test system: HCT-8 (human colon adenocarcinoma) cells; assay: in vitro activity against human colon adenocarcinoma (HCT-8), cell count; type: cell-based; conditions: Homo sapiens; HCT-8 cells, 60-65 hrs with compound; molar quantity of drug required to kill 50% of the tumor cells; read-out: ID50 Molar
# In short: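 HCT-8 cells seeded at ~30,000 cells/ml in RPMI 1640 + 10% FCS, grown 48 hrs at 37°C, then exposed to compound 60-65 hrs. Lysed cells counted by Coulter counter; activity as percent of controls, reported as ID50 (molar quantity killing 50% of cells).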
IC50 (L1210 Leukemia),Compound,zone of inhibition at 500 µg/mL (Aerobacter aerogenes),zone of inhibition at 3000 µg/mL (Streptococcus faecalis),zone of inhibition at 100 µg/mL (Escherichia coli),zone of inhibition at 100 µg/mL (Bacillus subtilis),zone of inhibition at 3000 µg/mL (Penicillium avellaneum),zone of inhibition at 1000 µg/mL (Aerobacter aerogenes),zone of inhibition at 3000 µg/mL (Bacillus subtilis),response vs control in vivo at 6.25 mg/kg [1],response vs control in vivo at 12.5 mg/kg [1],response vs control in vivo at 25 mg/kg [1],response vs control in vivo at 50 mg/kg [1],IC50 [2],response vs control in vivo at 3.12 mg/kg [1],other results
390 nM,"O=C1c2ccccc2-c2nn(CCNCCO)c3ccc(Cl)c1c23 [H; Cl*; (CH2)2NH(CH2)2OH, 5-chloro-2-[2-[(2-hydroxyethyl)amino]ethyl]anthra[1,9-cd]pyrazol-6(2H)-one]",18 mm,15 mm,16 mm,16 mm,0 mm,–,–,–,–,–,–,–,–,"response vs control in vivo at 100 mg/kg ([1]; P388, Dose 100 mg/kg intraperitoneally): 124%"
660 nM,"O=C1c2c(O)ccc(O)c2-c2nn(CCNCCO)c3ccc(Cl)c1c23 [7,10-(OH)2; Cl*; (CH2)2NH(CH2)2OH, 5-Chloro-7,10-dihydroxy-2-[2-[(2-hydroxyethyl)amino]ethyl]anthra[1,9-cd]pyrazol-6(2H)-one]",–,0 mm,–,–,0 mm,14 mm,0 mm,131%,138%,143%,161%,–,–,zone of inhibition at 500 µg/mL (Escherichia coli; Dose 0.5 mg/ml): 14 mm
630 nM,"NCCn1nc2c3c(c(Cl)ccc31)C(=O)c1c(O)ccc(O)c1-2 [7,10-(OH)2; Cl*; (CH2)2NH2, 2-(2-Aminoethyl)-5-chloro-7,10-dihydroxyanthra[1,9-cd]pyrazol-6(2H)-one]",–,0 mm,–,–,0 mm,14 mm,0 mm,–,–,–,125%,–,–,zone of inhibition at 3000 µg/mL (Escherichia coli; Dose 3.0 mg/ml): 15 mm
–,"CN(C)CCNc1ccc2c3c(nn2CCNCCO)-c2ccccc2C(=O)c13 [Example 25, 2-[2-[(2-Hydroxyethyl)amino]ethyl]-5-[[2-(dimethylamino)ethyl]amino]anthra[1,9-cd]pyrazol-6(2H)-one]",16 mm,–,–,–,0 mm,–,–,163%,166%,162%,–,230 nM,158%,zone of inhibition at 500 µg/mL (Streptococcus faecalis; Dose 0.5 mg/ml): 15 mm; zone of inhibition at 1000 µg/mL (Escherichia coli; Dose 1.0 mg/ml): 15 mm; zone of inhibition at 500 µg/mL (Bacillus subtilis; Dose 0.5 mg/ml): 20 mm
–,"NCCNc1ccc2c3c(nn2CCNCCO)-c2ccccc2C(=O)c13 [Example 22, 5-[(2-Aminoethyl)amino]-2-[2-[(2-hydroxyethyl)amino]ethyl]anthra[1,9-cd]pyrazol-6(2H)-one]",16 mm,0 mm,14 mm,15 mm,0 mm,–,–,–,175%,189%,–,42 nM,162%,"response vs control in vivo at 1.56 mg/kg ([1]; P388, Dose 1.56 mg/kg intraperitoneally): 150%"
